Laboratory results reported in patent publication US20260325654A1, “METHODS AND COMPOSITIONS FOR TARGETED PROTEIN DEGRADATION” (Ranok Therapeutics (Hangzhou) Co. Ltd., priority 2023, published 2026).
Where a name gives a salt, the structure may show the parent alone.

Assays:
KRAS(G12C) = target: T1, KRAS(G12C) (Homo sapiens, UniProt P01116, G12C); test: KRAS Western Blot Protein Degradation Assay, LU65A; type: cell-based; details: 24 hr; for DC50: read-out: WB data LU65A DC50; for Dmax: read-out: WB data LU65A DMax
T1 construct: LU65A that expresses KRAS(G12C); host or cells: LU65A
T1 sequence (P01116 1-185 isoform P01116-2 G12C limits assumed): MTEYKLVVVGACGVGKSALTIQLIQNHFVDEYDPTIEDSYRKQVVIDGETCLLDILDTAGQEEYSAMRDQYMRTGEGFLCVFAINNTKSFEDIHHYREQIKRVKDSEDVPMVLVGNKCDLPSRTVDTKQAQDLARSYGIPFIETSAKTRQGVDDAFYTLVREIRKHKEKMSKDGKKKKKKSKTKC
Text: (§1) The following cancer cell lines were employed: • AsPC-1 human pancreatic adenocarcinoma, homozygous KRAS(G12D), (ATCC, #CRL-1682); A-427 human lung carcinoma, heterozygous KRAS(G12D), (ATCC, #HTB-53); AGS human gastric adenocarcinoma, heterozygous KRAS(G12D), (ATCC, #CRL-1739); GP2D human colon adenocarcinoma, heterozygous KRAS(G12D), (Sigma Aldrich, 95090714); SW1990 human pancreatic adenocarcinoma, homozygous KRAS(G12D), (ATCC, #CRL2172); LU65A human lung giant cell carcinoma, heterozygous KRAS(G12C), (JCRB Cell Bank, #JCRB0054); NCIH727 human lung carcinoid, heterozygous KRAS(G12V), (ATCC, #CRL-5815); MKN1 human gastric adenosquamous carcinoma KRAS (wt), (JCRB Cell Bank, #JCRB0252). Cell lines were cultured according to ATCC, JCRB and Sigma Aldrich recommendations.
(§2) Cell lines SW1990 and GP2D that express KRAS(G12D), LU65A that expresses KRAS(G12C), and NCIH727 that expresses KRAS(G12V) were seeded in 6- or 12-well tissue culture plates, and after 1 hr, test compounds were added at various concentrations and incubated at 37° C./5% CO2 for 24 hr. Cells were then washed with cold PBS, aspirated and cold RIPA buffer containing a protease/phosphatase inhibitor cocktail was added to lyse cells. After centrifugation, the total protein concentrations of cell lysates were determined using the BCA protein assay. Samples were normalized for equivalent protein concentrations, 5× SDS-PAGE loading buffer added and denatured at 100° C. for 10 min. 20 μl of each sample/well was loaded on a SDS-PAGE gel and electrophoresed for 20 min at 80 V, then 120 V for 1.5 hr. Gels were then electroblotted to nitrocellulose membranes using a wet-transfer method at 250 mA for 2.5 hr. Membranes were incubated with blocking buffer for 1 hr and washed 3 times with TBST for 5 min. Membranes were then incubated with anti-KRAS (Sigma-Aldrich, #SAB1404011) and anti-β-Actin monoclonal antibodies (Cell Signaling Technology, #3700) diluted in blocking buffer at 4° C. overnight per the manufacturer's recommendations. After washing 3 times, blots were incubated with appropriately labeled secondary antibodies for 1 hr at room temperature and washed again. Fluorescence imaging and quantitation was performed using a LI-COR Odyssey. Results was analyzed using GraphPad Prism 7 software. Compound concentrations that induced KRAS degradation (DC50 and DCmax) were calculated using GraphPad Prism 7 software.

NCIH727 = test: CellTiter-Glo Reagent cancer cell line proliferation assay, NCIH727; type: cell-based, human; details: Homo sapiens, NCI-H727, 24 h, NCIH727, KRAS(G12V) heterozygous
Text: as §1
(§3) Cells were plated in 96-well tissue culture plates at 4,000 cells/well and incubated at 37° C./5% CO2 for 24 hr in 100 μl of media. 3-fold serial dilutions of each test compound were prepared ranging from 20 μM to 1.02 nM. Cells were then treated with test compounds at various concentrations with a final concentration of 0.5% DMSO/well, and then incubated at 37° C./5% CO2 for 24 hr. 100 μl of CellTiter-Glo® Reagent (Promega Corporation, Madison, WI) was added to each well and processed according manufacturer's protocol. Results were analyzed and IC50-values were calculated in GraphPad 7 software.

KRAS(G12V) = target: T2, KRAS(G12V) (Homo sapiens, UniProt P01116, G12V); test: KRAS Western Blot Protein Degradation Assay, NCIH727; type: cell-based; details: for DC50: 24 hr, read-out: WB data NCIH727 DC50; for Dmax: NCI-H727, 24 hr, read-out: WB data NCIH727 DMax
T2 construct: anti-KRAS Western blot degradation by PROTACs recruiting CRBN or VHL
T2 sequence (P01116 1-188 isoform P01116-2 G12V): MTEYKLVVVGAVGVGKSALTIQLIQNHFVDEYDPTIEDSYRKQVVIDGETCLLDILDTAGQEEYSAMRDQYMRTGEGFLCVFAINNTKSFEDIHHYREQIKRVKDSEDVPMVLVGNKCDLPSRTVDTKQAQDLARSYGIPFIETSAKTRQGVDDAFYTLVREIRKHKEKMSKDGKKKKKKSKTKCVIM
Text: as §1, §2

LU65A = test: CellTiter-Glo Reagent cancer cell line proliferation assay, LU65A; type: cell-based, human; details: Homo sapiens, 24 h, KRAS(G12C) heterozygous
Text: as §1, §3

MKN1 = test: CellTiter-Glo Reagent cancer cell line proliferation assay, MKN1; type: cell-based; details: Homo sapiens, MKN-1; MKN1, KRAS (wt), 24 hr
Text: as §1, §3

GP2D = test: CellTiter-Glo Reagent cancer cell line proliferation assay, GP2D; type: cell-based; details: Homo sapiens, KRAS(G12D) heterozygous, 24 hr
Text: as §1, §3

AGS = test: CellTiter-Glo Reagent cancer cell line proliferation assay, AGS; type: cell-based, human; details: Homo sapiens, 24 h, KRAS(G12D) heterozygous
Text: as §1, §3

SW1990 = test: CellTiter-Glo Reagent cancer cell line proliferation assay, SW1990; type: cell-based; details: Homo sapiens; SW1990, KRAS(G12D) homozygous, 24 hr
Text: as §1, §3

Row | DC50 (KRAS(G12C)) | Dmax (KRAS(G12C)) | IC50 (NCIH727) | DC50 (KRAS(G12V)) | Dmax (KRAS(G12V)) | IC50 (LU65A) | IC50 (MKN1) | IC50 (GP2D) | IC50 (AGS) | IC50 (SW1990) | Compound
1 | > 1000 nM | 10 to 50% | > 1000 nM | > 1000 nM | > 50% | > 1000 nM | > 1000 nM | > 1000 nM | > 1000 nM |  | C#Cc1c(F)ccc2cc(O)cc(-c3ncc4c(N5CCN(C(=O)CC#N)[C@@H](CC#N)C5)nc(OCC5(CN6CCN(CC7CCN(c8ccc9c(c8)CN(C8CCC(=O)NC8=O)C9=O)CC7)CC6)CC5)nc4c3F)c12 (stereo partly drawn) [Compound 103, 3-((2S)-2-(cyanomethyl)-4-(2-((1-((4-((1-(2-(2,6-dioxopiperidin-3-yl)-1-oxoisoindolin-5-yl)piperidin-4-yl)methyl)piperazin-1-yl)methyl)cyclopropyl)methoxy)-7-(8-ethynyl-7-fluoro-3-hydroxynaphthalen-1-yl)-8-fluoropyrido[4,3-d]pyrimidin-4-yl)piperazin-1-yl)-3-oxopropanenitrile]
2 | < 100 nM | > 50% | < 100 nM | < 100 nM | > 50% | < 100 nM | > 1000 nM | < 100 nM | < 100 nM |  | O=CO.[2H]C([2H])([2H])Oc1nc(-c2cc(O)cc3ccc(F)c(C#C)c23)c(F)c2nc(OCC3(CN4CCN(CC5CCN(c6ccc7c(c6)CN(C6CCC(=O)NC6=O)C7=O)CC5)CC4)CC3)nc(N3CC4CCC(C3)N4C(=O)CC(C)C#N)c12 (stereo not drawn) [Compound 115]
3 | 100 to 1000 nM | > 50% | > 1000 nM | < 100 nM | > 50% | 100 to 1000 nM | 100 to 1000 nM | 100 to 1000 nM | > 1000 nM |  | C#Cc1c(F)ccc2cc(O)cc(-c3ncc4c(N5CC6CCC(C5)N6C(=O)C5(C#N)CC5)nc(OCC5(CN6CCN(CC7CCN(c8ccc9c(c8)CN(C8CCC(=O)NC8=O)C9=O)CC7)CC6)CC5)nc4c3F)c12 (stereo not drawn) [Compound 107]
4 |  |  |  |  |  |  |  | < 100 nM | < 100 nM | < 100 nM | C#Cc1c(F)ccc2cc(O)cc(-c3ncc4c(N5C[C@H]6CC[C@@H](C5)N6)nc(OCC5(CN(C)Cc6ccc(C7CN(c8ccc9c(c8)CN(C8CCC(=O)NC8=O)C9=O)C7)cc6)CC5)nc4c3F)c12 (stereo partly drawn) [Compound 92, 3-(5-(3-(4-((((1-(((4-((1R,5S)-3,8-diazabicyclo[3.2.1]octan-3-yl)-7-(8-ethynyl-7-fluoro-3-hydroxynaphthalen-1-yl)-8-fluoropyrido[4,3-d]pyrimidin-2-yl)oxy)methyl)cyclopropyl)methyl)(methyl)amino)methyl)phenyl)azetidin-1-yl)-1-oxoisoindolin-2-yl) piperidine-2,6-dione formate]
5 | < 100 nM | > 50% | > 1000 nM |  |  | < 100 nM | > 1000 nM |  |  |  | C#Cc1c(F)ccc2cc(O)cc(-c3ncc4c(N5CCN(C(=O)C=C)[C@@H](CC#N)C5)nc(OCC5(CN6CCN(CC7CCN(c8ccc9c(c8)CN(C8CCC(=O)NC8=O)C9=O)CC7)CC6)CC5)nc4c3F)c12 (stereo partly drawn) [Compound 79]
6 | < 100 nM | > 50% | < 100 nM | < 100 nM | > 50% | < 100 nM | 100 to 1000 nM | 100 to 1000 nM | 100 to 1000 nM |  | C#Cc1c(F)ccc2cc(O)cc(-c3ncc4c(N5CC6CCC(C5)N6C(=O)C(C)C#N)nc(OCC5(CN6CCN(CC7CCN(c8ccc9c(c8)CN(C8CCC(=O)NC8=O)C9=O)CC7)CC6)CC5)nc4c3F)c12 (stereo not drawn) [Compound 108]
7 |  |  |  |  |  |  |  | < 100 nM | < 100 nM | 100 to 1000 nM | C#Cc1c(F)ccc2cc(O)cc(-c3ncc4c(N5CC6CCC(C5)N6)nc(OCC5(CN6CCC(C#Cc7ccc8c(c7)CN(C7CCC(=O)NC7=O)C8=O)CC6)CC5)nc4c3F)c12 (stereo not drawn) [Compound 91]
8 |  |  | 100 to 1000 nM | < 100 nM | > 50% | < 100 nM | > 1000 nM | 100 to 1000 nM | 100 to 1000 nM |  | C#Cc1c(F)ccc2cc(O)cc(-c3ncc4c(N5CC6CCC(C5)N6C(=O)[C@@H](C)C#N)nc(OCC5(CN6CCN(CC7CCN(c8ccc9c(c8)CN(C8CCC(=O)NC8=O)C9=O)CC7)CC6)CC5)nc4c3F)c12 (stereo partly drawn) [Compound 109]
9 | < 100 nM | > 50% | < 100 nM | < 100 nM | > 50% | < 100 nM | 100 to 1000 nM | < 100 nM | < 100 nM |  | O=CO.[2H]C([2H])([2H])Oc1nc(-c2cc(O)cc3ccc(F)c(C#C)c23)c(F)c2nc(OCC3(CN4CCN(CC5CCN(c6ccc7c(c6)CN(C6CCC(=O)NC6=O)C7=O)CC5)CC4)CC3)nc(N3CC4CCC(C3)N4C(=O)CCC#N)c12 (stereo not drawn) [Compound 114]
10 | > 1000 nM | 10 to 50% | > 1000 nM | > 1000 nM | 10 to 50% | > 1000 nM | < 100 nM | 100 to 1000 nM | > 1000 nM |  | C#Cc1c(F)ccc2cc(O)cc(-c3ncc4c(N5CC6CCC(C5)N6C(=O)C(C)(C)C#N)nc(OCC5(CN6CCN(CC7CCN(c8ccc9c(c8)CN(C8CCC(=O)NC8=O)C9=O)CC7)CC6)CC5)nc4c3F)c12 (stereo not drawn) [Compound 106]
11 | > 1000 nM | 10 to 50% | 100 to 1000 nM | < 100 nM | > 50% | 100 to 1000 nM | 100 to 1000 nM | 100 to 1000 nM | > 1000 nM |  | C#Cc1c(F)ccc2cc(O)cc(-c3nc(OC)c4c(N5CC6CCC(C5)N6C(=O)CC#N)nc(OCC5(CN6CCN(CC7CCN(c8ccc9c(c8)CN(C8CCC(=O)NC8=O)C9=O)CC7)CC6)CC5)nc4c3F)c12 (stereo not drawn) [Compound 102]
12 | < 100 nM | > 50% |  |  |  | < 100 nM | > 1000 nM |  |  |  | C#Cc1c(F)ccc2cc(O)cc(-c3ncc4c(N5CCN(C(=O)C(=C)F)[C@@H](CC#N)C5)nc(OCC5(CN6CCN(CC7CCN(c8ccc9c(c8)CN(C8CCC(=O)NC8=O)C9=O)CC7)CC6)CC5)nc4c3F)c12 (stereo partly drawn) [Compound 105]
13 |  |  | > 1000 nM |  |  | 100 to 1000 nM | 100 to 1000 nM | 100 to 1000 nM | 100 to 1000 nM |  | [2H]C([2H])([2H])Oc1nc(-c2cc(O)cc3ccc(F)c(C#C)c23)c(F)c2nc(OCC3(CN4CCN(CC5CCN(c6ccc7c(c6)CN(C6CCC(=O)NC6=O)C7=O)CC5)CC4)CC3)nc(N3CC4CCC(C3)N4C(=O)C(C)CC#N)c12 (stereo not drawn) [Compound 116]

Row | Compound | DC50 (KRAS(G12C)) | Dmax (KRAS(G12C)) | IC50 (NCIH727) | DC50 (KRAS(G12V)) | Dmax (KRAS(G12V)) | IC50 (LU65A) | IC50 (MKN1) | IC50 (GP2D) | IC50 (AGS) | IC50 (SW1990)
14 | C#Cc1c(F)ccc2cc(O)cc(-c3ncc4c(N5CC6CCC(C5)N6C(=O)CC#N)nc(OCC5(CN6CCN(CC7CCN(c8ccc9c(c8)CN(C8CCC(=O)NC8=O)C9=O)CC7)CC6)CC5)nc4c3F)c12 (stereo not drawn) [Compound 80] | < 100 nM | > 50% | < 100 nM | 100 to 1000 nM | > 50% | 100 to 1000 nM |  |  |  | 
